Measured values from the NIST ThermoML archive (doi:10.1021/je9009915).

Details: Liquid

FCC(F)(F)F [1,1,1,2-tetrafluoroethane]
Details	vapor or sublimation pressure [kPa]
303.45 K	775.7
308.44 K	892.2
313.3 K	1018.8
318.39 K	1165.4
323.3 K	1319
328.26 K	1492.4
333.3 K	1683.7
338.24 K	1889.6
343.23 K	2115.3
